# Source: patent US8961930B2, “Isatin derivatives for use as in vivo imaging agents” (Imperial Innovations Limited, priority 2008, dated 2015)
# What was measured:
# caspase 6 = target: T1, caspase 6 (Homo sapiens, UniProt P55212); assay: Fluorimetric in vitro caspase inhibition assay (7-AMC), caspase 6; type: biochemical; conditions: recombinant human caspase 6, 10 μM Ac-VEID-AMC; read-out: Caspase EC50 (nM), 1/6/8: caspase 6
# T1 construct: purchased Biomol International, UK
# T1 sequence (P55212 24-179 limits assumed): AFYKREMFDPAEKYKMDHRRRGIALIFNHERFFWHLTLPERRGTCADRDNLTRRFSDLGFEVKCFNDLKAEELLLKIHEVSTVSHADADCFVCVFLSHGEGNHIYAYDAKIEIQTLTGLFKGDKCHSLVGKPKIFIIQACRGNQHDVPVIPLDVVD
# T1 sequence (P55212 194-293 limits assumed): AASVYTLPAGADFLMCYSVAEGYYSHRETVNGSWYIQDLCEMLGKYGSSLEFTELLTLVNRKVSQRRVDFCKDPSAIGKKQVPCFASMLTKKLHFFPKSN
# Procedure: (§1) Recombinant human caspases-1, -3, -6, -7, and -8 and their peptide-specific substrates were purchased from Biomol International, UK Inhibition of the recombinant caspases by non-radioactive isatins was assessed using a fluorometric assay that measures the accumulation of a fluorogenic product, 7-amino-4-methylcoumarin (7-AMC). All assays were performed in 96-well plates at a volume of 200 μl per well. The assays were performed at 37° C. in an appropriate reaction buffer as described below for each caspase. For caspase 1, the buffer comprised of 0.1% CHAPS, 100 mM NaCl, 5 mM 2-mercaptoethanol, 100 mM HEPES (pH 7.4), 2 mM EDTA, 10% sucrose, and 10 μM of the peptide substrate Ac-YVAD-AMC. For caspase 3: 20 mM HEPES (pH 7.4), 10% sucrose, 100 mM NaCl, 0.1% CHAPS, 2 m, mM EDTA, and 10 μM Ac-DEVD-AMC. For caspase 6: 20 mM HEPES (pH 7.4), 10% sucrose, 100 mM NaCl, 0.1% CHAPS, 2 mM EDTA, and 10 μM Ac-VEID-AMC. For caspase 7: 20 mM HEPES (pH 7.4), 10% sucrose, 5 mM 2-mercaptoethanol, 100 mM NaCl, 0.1% CHAPS, 2 mM EDTA, 10 μM Ac-DEVD-AMC. For caspase 8: 20 mM HEPES (pH 7.4), 10% sucrose, 100 mM NaCl, 0.1% CHAPS, 2 mM EDTA, and 10 μM Ac-IETD-AMC. The Buffers contained non-radioactive isatins in DMSO at a final concentration of 500, 50, 5 μM; 500, 50, 5 nM; 500, 50, 5 pM; the final concentration of DMSO in all wells was 5% of the total volume. Recombinant caspases were used at 0.5 units per assay (˜500 pmol substrate converted per h). All reagents except the peptide substrate were pre-incubated for 10 min. The peptide substrate (final concentration 10 μM) was then added and the plate was incubated for a further 30 min; 30 min was selected after initial linearity study where reaction was assessed after 10, 30, 60 or 90 min. The 30 min time point was selected. Respective control wells contained all reaction components without enzyme. The amount of 7-AMC produced was measured on a fluorescence microplate reader (Victor2; Perkin-Elmer Life sciences) at excitation and emission wavelengths of 355 nm and 460 nm, respectively. The concentration of isatin that inhibits the caspase activity by 50% (EC50) was estimated by non-linear regression analysis using GraphPad Prism (Version 4.0 for Windows, GraphPad Software, San Diego Calif. USA). All the isatins were analyzed in duplicate; the assays were repeated once. Known compounds 13-16 were included as reference compounds.
# (§2) The data are the average for two runs, each of which was duplicated, at nine concentrations ranging from 5 pM to 500 μM; the drug concentration required to inhibit each enzyme by 50% (EC50) was obtained from nonlinear regression analysis of the inhibition profiles.
# caspase 1 = target: T2, caspase 1 (Homo sapiens, UniProt P29466); assay: Fluorimetric in vitro caspase inhibition assay (7-AMC), caspase 1; type: biochemical; conditions: recombinant human caspase 1, 10 μM Ac-YVAD-AMC; read-out: Caspase EC50 (nM), 1/6/8: caspase 1
# T2 construct: purchased Biomol International, UK
# T2 sequence (P29466 120-297 limits assumed): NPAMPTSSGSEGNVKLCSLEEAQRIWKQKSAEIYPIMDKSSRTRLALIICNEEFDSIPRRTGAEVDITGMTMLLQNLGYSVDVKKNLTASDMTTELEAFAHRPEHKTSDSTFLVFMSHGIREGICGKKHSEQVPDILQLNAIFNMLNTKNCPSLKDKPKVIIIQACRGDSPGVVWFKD
# T2 sequence (P29466 317-404 limits assumed): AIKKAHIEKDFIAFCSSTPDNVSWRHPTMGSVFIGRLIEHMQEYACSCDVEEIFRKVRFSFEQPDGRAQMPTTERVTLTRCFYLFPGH
# Procedure: as §1, §2
# caspase 7 = target: T3, caspase 7 (Homo sapiens, UniProt P55210); assay: Fluorimetric in vitro caspase inhibition assay (7-AMC), caspase 7; type: biochemical; conditions: recombinant human caspase 7, 10 μM Ac-DEVD-AMC
# T3 construct: purchased Biomol International, UK
# T3 sequence (P55210 24-198 limits assumed): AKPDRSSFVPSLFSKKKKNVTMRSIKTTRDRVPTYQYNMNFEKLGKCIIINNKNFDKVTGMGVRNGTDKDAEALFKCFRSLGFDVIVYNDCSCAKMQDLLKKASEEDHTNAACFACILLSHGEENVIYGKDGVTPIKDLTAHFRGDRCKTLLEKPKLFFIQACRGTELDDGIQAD
# T3 sequence (P55210 207-303 limits assumed): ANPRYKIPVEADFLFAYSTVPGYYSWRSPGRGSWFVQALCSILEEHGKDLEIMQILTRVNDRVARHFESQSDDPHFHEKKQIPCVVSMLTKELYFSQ
# Procedure: as §1, §2
# caspase 8 = target: T4, caspase 8 (Homo sapiens, UniProt Q14790); assay: Fluorimetric in vitro caspase inhibition assay (7-AMC), caspase 8; type: biochemical; conditions: recombinant human caspase 8, 10 μM Ac-IETD-AMC; read-out: Caspase EC50 (nM), 1/6/8: caspase 8
# T4 construct: purchased Biomol International, UK
# Procedure: as §1, §2
# 38C13 lymphoma cells = assay: Binding in 38C13 lymphoma cells undergoing treatment-induced apoptosis; type: cell-based, murine; conditions: 38C13 cells, 4-HC 1 μg/mL 24 h
# Procedure: (left panel). Chemical structure and [^18F]11 binding in 38C13 lymphoma cells treated with 4-hydroperoxycyclophosphamide 4-HC (4-HC; 1 μg/mL; 24 h) to induce apoptosis. For all treated and control samples, radioactivity data were expressed as decay-corrected counts per milligram of total cellular protein. (right panel) The effect of 4-HC on the binding of the low affinity probe, [^18F]42, in 38C13 lymphoma cells. Data are mean±s.e.m.
# A further aspect of the project has involved analysis of the weak isatin caspase-3 inhibitor N-[1-(2-Fluoroethyl)-1H-[1,2,3]-triazol-4-yl]isatin (compound 42). […] However, [^18F]42 lacks the pyrrolidine sulphonamide functionality that confers high affinity and selectivity for caspase-3. [^18F]42 was investigated in cell uptake assays for direct comparison with [^18F]11. The purpose of this was to examine the uptake profiles of the compounds in an effort to determine if uptake was the result of increased cell permeability, a characteristic trait of apoptotic cells, or the result of caspase-3 binding. Unlike [^18F]11, there was no increase in [^18F]42 binding following drug treatment (see FIG. 26), supporting the notion that [^18F]11 binding is due to caspase 3 activation.
# [1] = In vivo biodistribution studies (Example 5); set-up: species or system C3H/hej mice; conditions: mice, i.v., 2-60 min
# Procedure: The stability of novel compound [^18F]11 and known compound [^125I]14 in plasma and liver was measured over time following administration in mice. [^18F]11 was injected intravenously into tumor-bearing mice and its tissue distribution was measured in selected tissues at 2, 15 and 60 min after injection. [^125I]14 was injected intravenously into non-tumour bearing mice and its tissue distribution was measured at selected time points from 2 to 60 minutes after injection. Furthermore, the in vivo metabolic stability of the radiotracer was determined from plasma and liver samples and, for [^18F]11, in urine samples.
# The radiation-induced murine fibrosarcoma (RIF-1) tumour cells^20 were maintained in RPMI 1640 medium (Invitrogen Ltd, Paisley, UK) supplemented with 10% fetal calf serum (BioWhittaker Europe Ltd, Verviers, Belgium), 2 mM L-glutamine, 100 U/mL penicillin, 100 μg/mL streptomycin and 0.25 μg/mL fungizone (Gibco, UK) at 37° C. in a humidified incubator with 5% CO2. All animal work was done by licensed investigators in accordance with the United Kingdom's “Guidance on the Operation of Animals (Scientific Procedures) Act 1986” (HMSO, London, United Kingdom, 1990) and in full compliance with government regulations and guidelines on the welfare of animals in experimental neoplasia^21. Tumors were established in mice by subcutaneous injection of 5×10^5 cells on the back of male C3H/hej mice (Harlan, Bicester, Oxfordshire, UK). Tumour growth was monitored every two days using electronic callipers, and tumor volume estimated using the equation (π/6)×L×W×D (L=length, W=width and D=depth). Animals were selected for biodistribution studies of [^18F]11 when the tumors reached ˜100-150 mm^3; biodistribution of [^125I]14 was done in non-tumor-bearing mice.
# Mice were injected intravenously via the lateral vein with 0.08-0.13 mL of radioactivity (˜0.37 MBq of [^125I]14 or 3.7 MBq of [^18F]11) dissolved in phosphate buffered saline. At selected times after injection (2-60 min) mice were sacrificed by exsanguination via cardiac puncture under general anesthesia (isofluorane inhalation). Aliquots of heparinised blood were rapidly centrifuged (2000 g for 5 minutes) to obtain plasma. The radioactivity contained in tissues was determined by gamma-counting on a Cobra II Auto-Gamma counter (Packard Instruments, Meriden, Conn., USA) and expressed as a percentage of injected dose per gram of tissue (% ID/g). A minimum of three mice was used for each time point. All animals were treatment-naïve.
# [2] = In vivo metabolism studies, radio-HPLC of plasma, liver and urine; set-up: species or system C3H/hej mice
# Procedure: [^18F]11 was injected intravenously into tumor-bearing mice and its tissue distribution was measured in selected tissues at 2, 15 and 60 min after injection. […] Furthermore, the in vivo metabolic stability of the radiotracer was determined from plasma and liver samples and, for [^18F]11, in urine samples.
# In vivo metabolism studies were also performed in C3H/hej mice. […] Plasma, liver and urine samples were snap-frozen in liquid nitrogen and kept in pre-weighed scintillation counting tubes on dry ice prior to analysis.
# Immediately prior to extraction the samples were thawed and placed on ice. For extraction, ice cold acetonitrile (1.5 mL) was added to plasma (0.2 mL); S9 incubation samples (3 mL) containing acetonitrile were also analysed. Each mixture was centrifuged (15493×g, 4° C., 3 min) and the resulting supernatant was evaporated to dryness under vacuum at 40° C. using a rotary evaporator. Liver samples were homogenized with ice cold acetonitrile (1.5 mL) using an IKA Ultra-Turrax T-25 homogeniser prior to centrifugation. The residues were then re-suspended in HPLC mobile phase (1.2 mL) and filtered through a Minisart hydrophilic syringe filter (0.2 μm) (Sartorius, Goettingen, Germany). Urine samples were diluted with HPLC mobile phase, filtered as above. The samples (1 mL) were then analyzed by radio-HPLC on an Agilent 1100 series HPLC system (Agilent Technologies, Stockport, UK) equipped with a γ-RAM Model 3 gamma-detector and the Laura software (IN/US Systems inc., Florida, USA).
# The stationary phase comprised of a Waters μBondapak C18 reverse-phase column (300×7.8 mm). […] Furthermore, to assess the fraction of [^18F]9-derived radioactivity associated with the plasma and liver pellets after extraction versus that remaining in the HPLC injectate, the total volume of HPLC injectate was recorded and an aliquot (0.1 mL) removed for counting. The radioactivity in the 0.1 mL aliquot and the pellet were then analyzed by gamma counting (Packard Instruments).
# T4 sequence (Q14790 217-374 limits assumed): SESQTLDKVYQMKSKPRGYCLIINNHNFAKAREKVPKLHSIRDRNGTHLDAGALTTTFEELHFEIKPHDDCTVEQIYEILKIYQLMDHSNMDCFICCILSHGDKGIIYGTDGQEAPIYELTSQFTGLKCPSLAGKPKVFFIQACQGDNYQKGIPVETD
# T4 sequence (Q14790 385-479 limits assumed): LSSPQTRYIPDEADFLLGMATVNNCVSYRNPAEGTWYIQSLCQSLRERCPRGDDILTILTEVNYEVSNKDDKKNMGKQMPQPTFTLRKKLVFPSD
structure (smiles),measurement,setting,value
"O=C1C(=O)N(Cc2ccc(F)cc2)c2ccc(S(=O)(=O)N3CCC[C@H]3COc3cc(F)cc(F)c3)cc21 [Compound 3, (S)-1-(4-Fluorobenzyl)-5-(2-(3,5-difluorophenoxymethyl)-pyrrolidine-1-sulfonyl)isatin]",EC50,caspase 6,> 5000 nM
same,EC50,caspase 1,> 5000 nM
same,EC50,caspase 7,16.8 nM
same,EC50,caspase 8,> 5000 nM
"O=C1C(=O)N(c2cn(CCF)nn2)c2ccccc21 [[^18F]42, N-[1-(2-Fluoroethyl)-1H-[1,2,3]-triazol-4-yl]isatin]",binding following drug treatment,38C13 lymphoma cells,no increase
"O=C1C(=O)N(Cc2ccc(I)cc2)c2ccc(S(=O)(=O)N3CCC[C@H]3COc3ccccc3)cc21 [[^125I]14, (S)-1-(4-iodobenzyl)-5-(2-phenoxymethyl-pyrrolidine-1-sulfonyl)isatin, reference compound]",tissue distribution and elimination,[1],distributed rapidly to the major organs and was also rapidly eliminated
same,parent as share of the radioactivity detected in the liver,"[2]; 10 min after injection, n=3",< 15%
same,time until parent fully metabolized in the liver,"[2]; mice, after injection",≤ 30 min
same,time to complete elimination of parent from plasma,"[2]; mice, i.v.",≤ 10 min
